Data on 1 molecule can be found in patent US9169509B2, “Topoisomerase 2b as a predictor of susceptibility to anthracycline-induced cardiotoxicity” (Board of Regents, The University of Texas System, priority 2013, dated 2015).

Common to all, as to format: in vivo, mouse
Data set [1] deals with DNA double strand breaks in the heart. As to the kind of experiment: Detection of DNA double strand breaks (γ-H2AX staining) in heart sections. The settings on record: acute doxorubicin 25 mg/kg, 16 h. As for the experimental part: After mice were sacrificed, hearts were perfused with ice-cold PBS, quickly removed, embedded in OCT compound (Fisher Scientific), and snap-frozen in liquid nitrogen. The heart was sectioned to 5 μm-thick slices using a cryostat. Heart sections were stored at −80° C. until immunofluorescence staining was performed. Heart sections were rinsed with PBS at room temperature, fixed in BD Cytofix/Cytoperm solution (BD Biosciences) for 15 m, washed in PBS, and permeabilized in BD Perm/Wash solution for 30 m. Heart sections were first blocked with BSA (2 mg/ml) for 30 m, then incubated with an mouse monoclonal anti-γ-H2AX antibody conjugated with Alexa Fluor 555 (Clone N1-431, BD Biosciences) for 1 h. Nuclei were stained with DAPI (Sigma, 1 μg/ml PBS), and the slides were sealed for examination with an Olympus epifluorescence microscope (Model BX51). To quantify DSBs, the numbers of γ-H2AX-positive nuclei and the total nuclei were counted in 5 microscopic fields (400×) per section. For each mouse, five heart sections were counted to determine the percentage of γ-H2AX-positive nuclei.
To further confirm the cardio-protective effect of Dex, DNA double strand breaks were assessed in heart tissues. Dexrazoxane (100 mg/kg) was injected (ip) 8 hrs prior to doxorubicin (25 mg/kg) treatment. Hearts were harvested 16 hr after doxorubicin treatment. The percentage of γH2AX-positive nuclei was counted in 5 fields (400×) in each heart section. Five sections were counted in each heart to determine the average percentage of γH2AX-positive nuclei.

Data set [2] deals with heart sections. Briefly: Transmission electron microscopy of heart sections. The settings on record: for Ultra-structural changes of mitochondria (electron microscopy): doxorubicin 25 mg/kg for 72 h. As for the experimental part:
To examine doxorubicin-induced ultra-structural damages, wildtype and mice with Top2 deletion in the cardiomyocytes were treated with doxorubicin (25 mg/kg for 72 h or 5 mg/kg once a week for 5 weeks) or drug vehicle. Heart was quickly removed. After rinse with PBS and blot dried, 10-20 pieces of tissue samples (1×2×2 mm) were taken from the myocardium of the left ventricle. Tissue samples were immediately fixed in 3% phosphate glutaraldehyde. Before sectioning, tissue samples were washed in […] sodium phosphate buffer (pH 7.3), post fixed in 1% osmium tetroxide for 1 h and dehydrated through a series of graded alcohol. Then tissue samples were infiltrated with acetone and phlybed 812 plastic resin and embedded in plastic block molds with 100% polybed 812. One micron sections (thick sections) were cut on ultra microtome and placed on glass slides and stained with toluidine blue. Ultra thin sections (80 nm) were cut from sample blocks using a RMC MTXL Ultra Microtome and mounted on 100 mesh copper grids. Grids were stained with 2% uranyl acetate and Reynold's lead stain. 9 sections were analyzed from each animal heart. Grids were examined with a JEOL 1230 electron microscope and images were capture with an AMTV 600 imaging system.

Data set [3] deals with heart sections. As to the kind of experiment: Masson's Trichrome staining of heart sections (fibrosis). How it is done: FIGS. 6a-e: a. Schematic of chronic doxorubicin treatment protocol. All mice received a baseline MRI scan first. Tamoxifen was then administered by gavage at a dose of 25 mg/kg, once a day for 5 consecutive days. […] After the last MRI scan, mice were sacrificed and the hearts were removed and examined for histological changes and Top2b expression. b. RT-qPCR of genes involved in mitochondrial biogenesis. Mice were treated with doxorubicin (5 mg/kg) once a week for 5 weeks. Cardiomyocytes were isolated from the heart 72 hr after the last dose. Total RNA was extracted for RTqPCR analysis of genes important for the function and structure of the mitochondria. For each mRNA shown relative expression is graphed for Top2b^+/+ Control, Top2b^+/+ Dox, Top2b^Δ/Δ Control, and Top2b^Δ/Δ Dox (from left to right). One way ANOVA was used to determine statistical significance (p<0.05). Error bars indicated STDEV. The asterisks indicated a significant difference (p<0.05). c. ROS production and quantitation. Representative images of heart sections stained with Dihydroethidium (DHE), which, after oxidation, intercalated into DNA and stained the nuclei red. Mice were treated with doxorubicin (5 mg/kg) once a week for 5 weeks. […] The numbers of DHE-positive and total nuclei were counted as described and the percentage of DHE-positive nuclei was determined. […]

As for `COc1cccc2c1C(=O)c1c(O)c3c(c(O)c1C2=O)C[C@@](O)(C(=O)CO)C[C@@H]3O[C@H]1C[C@H](N)[C@H](O)[C@H](C)O1` [doxorubicin], the “DSBs in the nuclei (γ-H2AX-positive nuclei)” value in data set [1] (Top2b+/+ mice) is “caused DSBs”. Also, in data set [1], the “Reduction of doxorubicin-caused DSBs in Top2bΔ/Δ mice versus Top2b+/+ mice” value is on record as 60%. The “Ultrastructural changes in mitochondria (EM)” value with heart sections [2] (Top2b+/+ hearts, chronic doxorubicin 5 mg/kg once a week for 5 weeks) was “ultrastructural changes in mitochondria”. In addition, the “Ultra-structural changes of mitochondria (electron microscopy)” value with heart sections [2] (Top2b+/+ mouse heart) is “marked mitochondria damage and vacuolization”; with heart sections [2] (Top2bΔ/Δ heart), “minimal ultra-structural changes”. In the data set with heart sections [3] (Top2b+/+ mice, doxorubicin 5 mg/kg once a week for 5 weeks, hearts 72 h after last dose), the “Fibrosis in the hearts (Masson's Trichrome)” value is “patchy fibrosis”. Also, the “Fibrosis and other pathological changes after chronic treatment, relative to Top2b+/+ hearts” value with heart sections [3] (Top2bΔ/Δ hearts, chronic doxorubicin 5 mg/kg once a week for 5 weeks) was “much less so”.
